From EP0414391B1, “Aminoketone derivatives and use thereof” (MITSUI TOATSU CHEMICALS, Inc., priority 1989, dated 1991) come the findings set out here.

The structures appear in SMILES notation. Counter-ions that a name gives are not always drawn. Like-named read-outs stand apart in the source and are kept apart here.

Series [1] deals with contraction of the bladder caused by a micturition reflex. The experiment in a line: Micturition reflex depression action (bladder balloon, internal pressure). It is filed as in vivo, Wistar male rats. Particulars: injected through the common carotid vein, urethane-anesthetized rats, Mean ± S.E., 3 rats. From the text:
Wistar male rats having a body weight of 300 g were each anesthetized s.c. with 1.5 g/kg of urethane and fixed in the supine position. The hypogastrium was next subjected to median incision so that the bladder was exposed. A short cut was formed in a top part of the bladder, through which a balloon having an internal volume of about 1 mℓ was inserted. A catheter equipped with a three-way cock was connected to the balloon. A syringe was connected to another flow passage of the three-way cock, while a transducer ("Statham P-50", trade name) was connected to the remaining flow passage to permit the measurement of the internal pressure of the bladder.
After the rat was left over for at least 30 minutes after the operation, 0.25-0.5 mℓ of distilled water was injected into the balloon by means of the syringe. Variations in the internal pressure of the bladder, which were developed at that time due to spontaneous movement of the bladder, were recorded on a polygraph ("RM-6000", trade name; manufactured by Nihon Koden K.K.) by way of the transducer.
Each test compound was dissolved in physiological saline and injected through the common carotid vein. Effects of each test compound was expressed in terms of the time required until the disappearance of a contraction of the bladder caused by a micturition reflex.

Series [2] concerns decerebrate rigidity induced by radio frequency lesions of rat brains. The experiment in a line: Decerebrate rigidity remission action (radio frequency lesion, method of Ono et al). It is filed as in vivo, Wistar male rat. The settings on record: iv, intravenously administered at 3 mg/kg, tension before the administration = 100%.
Text: Using the method proposed by Ono et al [H. Ono et al, Gen. Pharmacol., 18, 57 (1987)], rigidity remission action of the aminoketone derivatives of the invention for the decerebrate rigidity induced by radio frequency lesions of rat brains was investigated.
Each Wistar male rat (body weight: 300-400 g) was anesthetized with ether and then fixed on a stereotaxic apparatus. In accordance with the Pellegrino's stereo-taxic brain atlas, the electrodes of a lesion generator (manufactured by Radionics Company) were punctuated to AP: 0, L:±1.5, V:-3. […] The rigidified rat was fixed in the abdominal position and one of the hind legs was pushed 4-5 mm toward the head repeatedly once a minute. The tension of each extension reflex of the extensor of the hind limbs was recorded. Assuming that the tension before the administration be 100%, the rate of rigidity inhibition as expressed in terms of percentage: [formula]
(§1) The test compounds were intravenously administered at 3 mg/kg.
Series [3] has as its system flexor reflex of the right anterior tibialis. The experiment in a line: Depressing action for the spinal reflex of cat (flexor reflex). Particulars: Felis catus, iv, read-out: Reflex inhibition, %. It is filed as in vivo, cats.
Experimental: Both male and female cats having a body weight of 2.5-4.0 kg were anesthetized with ether and then fixed in the supine position. In accordance with the method proposed by Shimamoto et al ["Yakurigaku Jisshu (Pharmacological Practice)", Nanzando Co., Ltd. (1960)], profound peroneal nerve-anterior peroneal nerve samples were prepared for the testing of flexor reflex. The flexor reflex of the right anterior tibialis was elicited by electrical stimulation (0.2 Hz, 1 ms, supra maximal voltage) of the central end of the ipsilateral femoral nerve. Under a static tension of 25 g, contractions of the corresponding anterior peroneal nerve were recorded on a polygraph. Assuming that the contraction force before the administration be 100%, the rate of flexor reflex inhibition was expressed in terms of percentage: [formula]
as §1
Series [4] relates to Tonic extension of the hind limbs. The experiment in a line: Antiepileptic action (pentetrazole-induced tonic extension of the hind limbs). It counts as in vivo, ddy Male mice. Particulars: Mus musculus, ip, 0.5 h, read-out: Antiepileptic action ED₅₀.
Experimental: ddy Male mice (body weights: 25-30 g) were used. Test compounds were intraperitoneally administered. Thirty minutes later, pentetrazole (PTZ) was intraperitoneally administered at 170 mg/kg.
Tonic extension of the hind limbs was observed. [formula]
Effective dose for 50% of antiepileptic action, ED₅₀ (mg/kg) was calculated.
Series [5] can be described thus: Central depressant action (spontaneous behavior, revolutionary wheel). Set-up: species or system ddy Male mice. Particulars: mouse, in vivo, ip; intraperitoneal administration; dose reducing the number of wheel revolutions in 20 minutes by 50%; read-out: Central depressant action ED₅₀. Here is the method:
Depressant action against spontaneous behavior using a revolutionary wheel was used as an index for central depressant action.
ddy Male mice (body weights: 25-30 g) were used. After intraperitoneal administration of each test compound, the mouse was immediately placed in a revolutionary wheel. The total number of revolutions of the wheel during a 20 minute period immediately after the placement of the mouse inside the wheel was counted.
Doses required to reduce the number of revolutions by 50%, ED₅₀ (mg/kg) were determined.

A further series in a line: Acute toxicity. The settings on record: mouse, in vivo, ip; intraperitoneally administered; alive or dead observed one day later; read-out: LD₅₀. The method, then: ddy Male mice (body weights: 25-30 g) were used. Each test compound was intraperitoneally administered. One day later, the mice were observed whether they were alive or dead.
50% lethal doses, LD₅₀ (mg/kg) were calculated.

The mark [6] stands for this setting: intravenously administered at 3 mg/kg, contraction force before the administration = 100%.
[7] abbreviates: intraperitoneally administered 30 minutes before pentetrazole (PTZ) 170 mg/kg i.p.

Turning to `CCc1ccc(C(=O)C(C)CN2CCCCC2)cc1` (centres unmarked) [Eperisone hydrochloride, eperisone hydrochloride, reference compound], the “Time required until disappearance” value in series [1] (Dose 2 mg/kg) was found to be 2.4 ± 1.2 min; in series [1] (Dose 4 mg/kg), 5.8 ± 2.1 min. Further, the inhibition in vivo at 3 mg/kg in series [2] was found to be 52%; in series [3] (setting [6]) it was 50%. The ED50 in series [4] (setting [7]) was found to be 30 mg/kg. In addition, in series [5], the ED50 at 20 min worked out at 33 mg/kg. Further, in the series “Acute toxicity”, the LD50 at 24 h fell in the range of 100 to 170 mg/kg.

In series [2], `CC(CN1CCCCC1)C(=O)c1cc(-c2ccccc2)no1.Cl` (centres unmarked) [Example 1, 5-(2-methyl-3-piperidinopropionyl)-3-phenylisoxazole Hydrochloride] displayed an inhibition in vivo at 3 mg/kg of 40%. Also, the ED50 in series [4] (setting [7]) was determined as 17 mg/kg. In addition, the ED50 at 20 min in series [5] was 54 mg/kg. The LD50 at 24 h in the series “Acute toxicity” was in the range of 170 to 300 mg/kg.

As to `CC(CN1CCCC1)C(=O)c1cc(-c2ccccc2)no1` (centres unmarked) [Example 5], in series [2], the inhibition in vivo at 3 mg/kg turned out to be 40%. In addition, in series [4] (setting [7]), the ED50 was found to be 20 mg/kg. Besides, in series [5], the ED50 at 20 min stood at 44 mg/kg. In addition, the LD50 at 24 h in “Acute toxicity” is 100 to 170 mg/kg.

In turn, `COc1cccc(-c2cc(C(=O)C(C)CN3CCCC3)on2)c1` (centres unmarked) [Example 8] displayed an inhibition in vivo at 3 mg/kg in series [2] of 38%.

Consider `Cc1ccc(-c2cc(C(=O)C(C)CN3CCCC3)on2)o1` (centres unmarked) [Example 20, hydrochloride], for which the results for the inhibition in vivo at 3 mg/kg in series [2] and in series [3] (setting [6]) were 49% and 54%, respectively. For the same molecule, the ED50 at 20 min in series [5] came out at 49 mg/kg. Further, the LD50 at 24 h in “Acute toxicity” lay in the range of 170 to 300 mg/kg.

Consider `CC(CN1CCCCC1)C(=O)c1cc(Cc2ccccc2)no1.Cl` (centres unmarked) [Example 21, 3-Benzyl-5-(2-methyl-3-piperidinopropionyl)isoxazole hydrochloride], for which the inhibition in vivo at 3 mg/kg in series [2] is 44%. For the same molecule, the ED50 at 20 min in series [5] was 52 mg/kg.

As to `CC(CN1CCCCC1)C(=O)c1cc(C(=O)c2ccccc2)no1.Cl` (centres unmarked) [Example 22, 3-benzoyl-5-(2-methyl-3-piperidinopropionyl)isoxazole hydrochloride], the inhibition in vivo at 3 mg/kg in series [2] was 41%. In addition, the ED50 in series [4] (setting [7]) came to 18 mg/kg. Further, in series [5], the ED50 at 20 min came to 43 mg/kg.

As for `CCC(CN1CCCC1)C(=O)c1cc(-c2ccccc2)no1` (centres unmarked) [Example 28, 3-Phenyl-5-{2-(1-pyrrolidinylmethyl)butyryl} isoxazole hydrochloride], the results for the “Time required until disappearance” value in series [1] (Dose 2 mg/kg) and in series [1] (Dose 4 mg/kg) were 5.6 ± 1.2 min and 10.1 ± 2.1 min, respectively. Also, the inhibition in vivo at 3 mg/kg is 62% in series [2] and 79% in series [3] (setting [6]). Also, the ED50 in series [4] (setting [7]) was found to be 5 mg/kg. Moreover, the ED50 at 20 min in series [5] stood at 44 mg/kg. Also, in the series “Acute toxicity”, the LD50 at 24 h fell in the range of 100 to 170 mg/kg.

Consider `CCC(CN1CCCCC1)C(=O)c1cc(-c2ccccc2)no1` (centres unmarked) [Example 29], for which the “Time required until disappearance” value was 4.9 ± 1.2 min in series [1] (Dose 2 mg/kg) and 8.6 ± 2.1 min in series [1] (Dose 4 mg/kg). For the same molecule, the inhibition in vivo at 3 mg/kg in series [2] turned out to be 53%; in series [3] (setting [6]) it was 70%. For the same molecule, the ED50 in series [4] (setting [7]) was 3 mg/kg. In addition, the ED50 at 20 min in series [5] stood at 38 mg/kg. In addition, the LD50 at 24 h in the series “Acute toxicity” fell in the range of 300 to 500 mg/kg.

Turning to `CCC(CN1CCCC1)C(=O)c1cc(-c2ccc(C)o2)no1` (centres unmarked) [Example 38], in series [3] (setting [6]), the inhibition in vivo at 3 mg/kg turned out to be 38%.

On to `CC(C)C(CN1CCCC1)C(=O)c1cc(-c2ccccc2)no1` (centres unmarked) [Example 46, 3-Phenyl-5-{2-(1-pyrrolidinylmethyl)-3-methylbutyryl}-isoxazole hydrochloride], for which the inhibition in vivo at 3 mg/kg in series [2] is 51%; in series [3] (setting [6]), 66%.

For `CCCC(CN1CCCC1)C(=O)c1cc(-c2ccccc2)no1` (centres unmarked) [Example 47], the inhibition in vivo at 3 mg/kg in series [3] is 45%.

In series [2], `CCC(CN1CCCC1)C(=O)c1cc(-c2ccccc2)on1` (centres unmarked) [Example 52] came in with an inhibition in vivo at 3 mg/kg of 61%.

With `CCC(CN1CCCC1)C(=O)c1noc2ccccc12` (centres unmarked) [Example 58, 3-{2-(1-pyrrolidinylmethyl)butyryl} -1,2-benzisoxazole hydrochloride], in series [3], the inhibition in vivo at 3 mg/kg was found to be 45%.

Take `CC(CN1CCCC1)C(=O)c1snc2ccccc12` (centres unmarked) [Example 61]: the inhibition in vivo at 3 mg/kg in series [3] (setting [6]) stood at 85%. Besides, in series [4] (setting [7]), the ED50 turned out to be 11 mg/kg. In series [5], the ED50 at 20 min is 37 mg/kg.

Consider `CCC(CN1CCCC1)C(=O)c1snc2ccccc12` (centres unmarked) [Example 62], for which, in series [3], the inhibition in vivo at 3 mg/kg was 90%. Moreover, the ED50 in series [4] was 23 mg/kg. In addition, the ED50 at 20 min in series [5] worked out at 50 mg/kg.

For `Cc1onc(-c2ccccc2)c1C(=O)C(C)CN1CCCCC1.Cl` (centres unmarked) [Example 68, 3-Phenyl-5-methyl-4-(2-methyl-3-piperidinopropionyl)isoxazole hydrochloride], the inhibition in vivo at 3 mg/kg in series [3] (setting [6]) was 56%. Also, the ED50 in series [4] (setting [7]) stood at 17 mg/kg.
